How the values were obtained:
[1] = biological target: T1, 5-hydroxytryptamine receptor 4 (Rattus norvegicus, UniProt Q62758); experiment: Displacement of [3H]GR113808 from 5HT4 receptor in Sprague-Dawley rat striatal membranes after 1 hr by […]; design: species or system Striatum, Membrane
Hippocampus [2] = experiment: Drug uptake in rhesus monkey hippocampus at 166.6 +/- 11.9 MBq, iv by PET analysis; type: ADME, organism-based, Macaca mulatta; settings: in vivo
[3] = Drug uptake in rhesus monkey temporal cortex at 166.6 +/- 11.9 MBq, iv by PET analysis; type: ADME, organism-based, Macaca mulatta; settings: in vivo
[4] = Drug uptake in rhesus monkey parietal cortex at 166.6 +/- 11.9 MBq, iv by PET analysis; type: ADME, organism-based, Macaca mulatta; settings: in vivo
[5] = Standardized uptake value ratio in rhesus monkey substantia nigra at 166.6 +/- 11.9 MBq, iv by PET analysis; type: ADME, organism-based, Macaca mulatta; settings: in vivo
[6] = Drug uptake in rhesus monkey caudate at 166.6 +/- 11.9 MBq, iv by PET analysis; type: ADME, organism-based, Macaca mulatta; settings: in vivo
[7] = Standardized uptake value ratio in rhesus monkey caudate at 166.6 +/- 11.9 MBq, iv by PET analysis; type: ADME, organism-based, Macaca mulatta; settings: in vivo
[8] = Octanol-buffer partition coefficient, log D of the compound at pH 7.4 by shake flask method; type: physicochemical
[9] = Drug uptake in rhesus monkey occipital cortex at 166.6 +/- 11.9 MBq, iv by PET analysis; type: ADME, organism-based, Macaca mulatta; settings: in vivo
Brain = experiment: Drug uptake in rhesus monkey brain at 166.6 +/- 11.9 MBq, iv after 20 mins by PET analysis; type: ADME, organism-based, Macaca mulatta; settings: in vivo
[10] = Drug uptake in rhesus monkey cerebellum at 166.6 +/- 11.9 MBq, iv by PET analysis; type: ADME, organism-based, Macaca mulatta; settings: in vivo
[11] = Standardized uptake value ratio in rhesus monkey putamen at 166.6 +/- 11.9 MBq, iv by PET analysis; type: ADME, organism-based, Macaca mulatta; settings: in vivo
Striatum [12] = experiment: Drug uptake in rhesus monkey striatum at 166.6 +/- 11.9 MBq, iv by PET analysis; type: ADME, organism-based, Macaca mulatta; settings: in vivo
Hippocampus [13] = experiment: Standardized uptake value ratio in rhesus monkey hippocampus at 166.6 +/- 11.9 MBq, iv by PET analysis; type: ADME, organism-based, Macaca mulatta; settings: in vivo
[14] = Drug uptake in rhesus monkey globus pallidus at 166.6 +/- 11.9 MBq, iv by PET analysis; type: ADME, organism-based, Macaca mulatta; settings: in vivo
[15] = Drug uptake in rhesus monkey putamen at 166.6 +/- 11.9 MBq, iv by PET analysis; type: ADME, organism-based, Macaca mulatta; settings: in vivo
[16] = Drug uptake in rhesus monkey substantia nigra at 166.6 +/- 11.9 MBq, iv by PET analysis; type: ADME, organism-based, Macaca mulatta; settings: in vivo
Striatum [17] = experiment: Standardized uptake value ratio in rhesus monkey striatum at 166.6 +/- 11.9 MBq, iv by PET analysis; type: ADME, organism-based, Macaca mulatta; settings: in vivo
[18] = Drug uptake in rhesus monkey frontal cortex at 166.6 +/- 11.9 MBq, iv by PET analysis; type: ADME, organism-based, Macaca mulatta; settings: in vivo
[19] = Standardized uptake value ratio in rhesus monkey globus pallidus at 166.6 +/- 11.9 MBq, iv by PET analysis; type: ADME, organism-based, Macaca mulatta; settings: in vivo
[20] = Drug uptake in rhesus monkey thalamus at 166.6 +/- 11.9 MBq, iv by PET analysis; type: ADME, organism-based, Macaca mulatta; settings: in vivo
[21] = biological target: T1, 5-hydroxytryptamine receptor 4; experiment: Binding affinity to 5HT4 receptor in rat striatal membranes; type: cell membranes, Striatum, Membrane
[22] = biological target: Serotonin 4 (5-HT4) receptor (Sus scrofa, UniProt Q6Q253); experiment: Binding affinity to 5HT4 receptor in pig striatal membranes; type: cell membranes, Striatum, Membrane
Rhesus monkey = experiment: Ex vivo receptor occupancy of 5HT4 receptor in rhesus monkey at 0.5 mg/kg; type: functional, Macaca mulatta
[23] = biological target: 5-hydroxytryptamine receptor 4 (Cavia porcellus, UniProt O70528); experiment: Binding affinity to 5HT4 receptor in guinea pig distal colon
Chain of 5-hydroxytryptamine receptor 4 (Cavia porcellus, UniProt O70528) (O70528 whole entry): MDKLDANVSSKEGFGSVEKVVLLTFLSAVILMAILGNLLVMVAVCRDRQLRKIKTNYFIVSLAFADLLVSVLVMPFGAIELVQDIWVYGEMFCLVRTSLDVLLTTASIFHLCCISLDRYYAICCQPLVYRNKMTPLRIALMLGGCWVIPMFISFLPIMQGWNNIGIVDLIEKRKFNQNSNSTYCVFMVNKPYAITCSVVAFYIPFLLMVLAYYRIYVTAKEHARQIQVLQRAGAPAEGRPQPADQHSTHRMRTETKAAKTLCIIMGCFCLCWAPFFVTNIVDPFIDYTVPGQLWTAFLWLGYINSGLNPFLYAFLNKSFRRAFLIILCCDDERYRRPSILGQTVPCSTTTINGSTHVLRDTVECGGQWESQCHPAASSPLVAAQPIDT

T1 sequence (Q62758 whole entry): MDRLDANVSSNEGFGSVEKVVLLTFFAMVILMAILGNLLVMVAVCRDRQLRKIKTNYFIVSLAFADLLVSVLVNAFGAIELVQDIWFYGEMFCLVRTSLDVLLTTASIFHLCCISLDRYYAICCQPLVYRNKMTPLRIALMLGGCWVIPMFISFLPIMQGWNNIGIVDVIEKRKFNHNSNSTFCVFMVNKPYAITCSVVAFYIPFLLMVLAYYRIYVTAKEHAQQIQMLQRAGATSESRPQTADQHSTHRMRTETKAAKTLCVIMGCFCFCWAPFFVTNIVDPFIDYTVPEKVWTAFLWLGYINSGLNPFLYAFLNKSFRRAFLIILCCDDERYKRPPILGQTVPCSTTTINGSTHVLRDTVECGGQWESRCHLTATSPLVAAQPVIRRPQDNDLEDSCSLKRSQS
Chain of Serotonin 4 (5-HT4) receptor (Q6Q253 whole entry): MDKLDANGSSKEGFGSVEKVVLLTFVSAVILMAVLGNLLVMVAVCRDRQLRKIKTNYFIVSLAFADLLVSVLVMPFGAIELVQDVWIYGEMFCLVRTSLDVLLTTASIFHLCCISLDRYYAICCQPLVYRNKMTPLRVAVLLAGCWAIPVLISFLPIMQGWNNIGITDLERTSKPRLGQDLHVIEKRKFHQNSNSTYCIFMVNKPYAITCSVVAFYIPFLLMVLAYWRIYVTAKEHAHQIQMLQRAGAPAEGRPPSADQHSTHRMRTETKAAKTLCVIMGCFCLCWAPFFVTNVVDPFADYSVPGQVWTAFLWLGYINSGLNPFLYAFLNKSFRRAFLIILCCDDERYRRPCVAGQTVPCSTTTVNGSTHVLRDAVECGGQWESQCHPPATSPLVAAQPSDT

Work on Nc1c(Cl)cc(C(=O)OCC2CCN(CCCF)CC2)c2c1OCCO2 yielded a Ki [1] of 70 pM.

In the case of Nc1c(Cl)cc(C(=O)OCC2CCN(CC[18F])CC2)c2c1OCCO2, the Drug uptake (Hippocampus [2]) is reported as “Active”, the Drug uptake [3] is reported as “Active” and the Drug uptake [4] is reported as “Active”. The SUV [5] was 3, the Drug uptake [6] was “Active” and the SUV [7] was 3. For the same compound, the logD [8] was 1.8, the Drug uptake [9] was “Active” and the Drug uptake (Brain) was 6.6 %ID. For the same compound, the Drug uptake [10] was “Active”, the SUV [11] was 3 and the Drug uptake (Striatum [12]) was “Active”. For the same compound, the SUV (Hippocampus [13]) was 3, the Drug uptake [14] was “Active” and the Drug uptake [15] was “Active”. For the same compound, the Drug uptake [16] was “Active”, the SUV (Striatum [17]) was 3 and the Drug uptake [18] was “Active”. For the same compound, the SUV [19] was 3 and the Drug uptake [20] was “Active”.

For CN1CCC(COC(=O)c2cc(Cl)c(N)c3c2OCCO3)CC1, the Kd [21] was 300 pM and the Kd [22] was 80 pM.

Compound Nc1c(Cl)cc(C(=O)OCC2CCN(CCF)CC2)c2c1OCCO2 has a Ki [1] of 200 pM.

In the case of Nc1c(Cl)cc(C(=O)OCC2CCN(CCC[18F])CC2)c2c1OCCO2, the Drug uptake (Hippocampus [2]) is reported as “Active”, the Drug uptake [3] is reported as “Active” and the Drug uptake [4] is reported as “Active”. The SUV [5] was 3, the Drug uptake [6] was “Active” and the SUV [7] was 3. For the same compound, the logD [8] was 1.4, the Drug uptake [9] was “Active” and the Drug uptake (Brain) was 5.6 %ID. For the same compound, the Drug uptake [10] was “Active”, the SUV [11] was 3 and the Drug uptake (Striatum [12]) was “Active”. For the same compound, the SUV (Hippocampus [13]) was 3, the Drug uptake [14] was “Active” and the Drug uptake [15] was “Active”. For the same compound, the Drug uptake [16] was “Active”, the SUV (Striatum [17]) was 3 and the Drug uptake [18] was “Active”. For the same compound, the SUV [19] was 3 and the Drug uptake [20] was “Active”.

CCCCN1CCC(COC(=O)c2cc(I)c(N)c3c2OCCO3)CC1 gave a Kd [21] of 300 pM.

For CCCCN1CCC(COC(=O)c2cc(Cl)c(N)c3c2OCCO3)CC1, the Activity (Rhesus monkey) was 93% and the Kd [23] was 20 pM.

Source: ChEMBL document CHEMBL3124938, “Synthesis and biological evaluation of positron emission tomography radiotracers targeting serotonin 4 receptors in brain: [18F]MNI-698 and [18F]MNI-699” (Bioorg Med Chem Lett, 2013)
